The values below come from patent US20090075313A1, “Split protein fragments, split protein systems, methods of making split protein systems, and methods of using split protein systems” (Stanford University, priority 2007, published 2009).

Data set [1] concerns human estrogen receptor ligand-binding domain (hER-LBD). Nature of the data set: intramolecular protein folding sensor (split TK fragments flanking ER-LBD), TK enzyme uptake in 293T cells. Format: cell-based. As for the experimental part: FIG. 2b illustrates a schematic diagram of the intramolecular folding sensor construct with the split TK fragments on either side of the estrogen receptor ligand binding domain (ER-LBD), and each construct was made by cloning into a pcDNA3.1 (+) plasmid backbone, under control of a CMV promoter. […] The error bar is the standard error of the mean for three samples.
All experiments were conducted with comparison to a positive control derived from the activity of intact TK, and a mock transfection acting as a negative control.

For data set [2], the system named is 293T cells stably expressing nTK(V119C)-FRB plus FKBP12-cTK. Nature of the data set: microPET imaging with [18F]-FHBG of subcutaneous 293T xenografts in living mice. Format: in vivo. The text has this: The signal from each implant was quantified directly from the microPET images to determine the % ID/g for the FHBG probe. […] The animals were repeatedly imaged on day 1 (before rapamycin), day 2 (one dose post rapamycin) and day 5 (3 doses post rapamycin) of this imaging protocol, i.e. after 1 week of initial xenograft growth. […] In another group of 4 mice, xenografts expressing nTK(V119C)-FRB plus FKBP12-cTK were compared with control implants stably expressing nTK plus cTK only (also in a single vector).
All animal handling and care was performed in accordance with Stanford University Animal Research Committee guidelines. […] The cells were allowed to grow as tumors for 7 days (to ˜0.3-0.4 cm in diameter). On day 8 mice were tail vein injected with 200 μCi of [^18F]-FHBG after undergoing anesthesia with 2% isoflurane in oxygen at 2 L/min. Three hours later, mice were microPET imaged in a spread prone position in a FOCUS microPET scanner (Concorde Microsystems, Knoxville, Tenn.). […] Immediately after imaging the animals were intraperitoneally injected with 50 μg of rapamycin; 24 h later all the animals were re-subjected to microPET imaging as mentioned above. The animals were further injected with intraperitoneal 50 μg rapamycin for two more days at 24 h intervals and subjected to repeat microPET imaging. In a separate cohort of 4 control mice, the above temporal imaging studies were performed in an identical fashion except that no rapamycin was administered. […] This % ID/g is a measure of the amount of tracer accumulated in a given tissue site normalized to the injected amount and to the mass of the tissue examined. […] For statistical analysis, the 2-tailed Student t-test was used. Differences were considered significant at P<0.05.

The test system of another data set is cells. To be noted: 40 nM of rapamycin per well; cited from earlier work.
For the next data set, the target named is FKBP12 (Homo sapiens, UniProt P62942). Conditions: stable 293T cells, with 40 nM rapamycin, 36 h.
A further data set deals with FM (F36M) mutant FKBP12 (Homo sapiens, UniProt P62942, F37M).
Text: (§1) Twenty-four hours later we added FK506 to these cells and, using an in vitro [8-^3H]Penciclovir cell uptake assay, measured either the time- or dose-dependent changes in homodimer dissociation and consequent diminished TK complementation.
as §1

For another data set, the target named is FKBP12-cTK (human; herpes simplex virus type 1, UniProt P62942 1-108). Nature of the data set: cell-based or functional assay.
In a further data set the target is HSV1-sr39TK (Human herpesvirus 1, UniProt Q9QNF7, A168F/F161L/I160F/L159I/L169M). Nature of the data set: self-complementation of split TK fragments without attached proteins, TK enzyme uptake in 293T cells. Format: cell-based, herpes simplex virus type 1. The text has this:
To confirm or refute this finding we performed a separate PCA study using another pair of known interacting proteins, after replacing FRB and FKBP12 with Id and MyoD respectively (FIG. 2a, and FIG. 12). […] We tested the interaction of Id and MyoD upon transient co-expression of the fusion proteins nTK-Id and MyoD-cTK in 293T cells, followed by an in vitro TK enzyme cellular uptake assay to detect dimerization-assisted complementation of the TK fragments. Again, this same orientation of chimeras using Id and MyoD was used previously in PCAs with split Firefly luciferase and Renilla luciferase. We compared this with complementation obtained using the previous chimeras containing FRB and FKBP12, before and after addition of rapamycin. As negative controls we also assayed for TK activity upon single- and co-expression of nTK and cTK fragments without any attached proteins to check whether any measured TK activity might originate in either the N-terminal or C-terminal fragments of TK alone, or perhaps by their spontaneous self-complementation even without attached proteins. The results, shown in FIG. 12, confirmed the findings described above using the FRB/FKBP12/rapamycin system (FIGS. 9, 10, 12).

Setting [3] is: 293T cells, 24 h treatment, P<0.05.

Like-named read-outs stand apart in the source and are kept apart here.

Sequence of FKBP12 (P62942 whole entry, added parts left off): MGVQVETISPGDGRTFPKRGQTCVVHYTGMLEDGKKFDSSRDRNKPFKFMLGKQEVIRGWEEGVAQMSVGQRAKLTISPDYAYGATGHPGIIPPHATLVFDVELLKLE
Sequence of FM (F36M) mutant FKBP12 (P62942 whole entry F37M): as the sequence (P62942 whole entry, added parts left off) above, with F37M counted along it

Regarding 4-hydroxytamoxifen [4-OHT], the “level of intramolecular-folding-assisted complementation versus carrier control-treated cells” value in data set [1] is reported as “significantly higher”.
Consider `Nc1nc2c(ncn2CCC(CO)C[18F])c(=O)[nH]1` (stereo not shown) [FHBG, 9-(4-[^18F]-fluoro-3-hydroxymethylbutyl)-guanine], for which the entries for the “probe % ID/g in shoulder tumors” value in data set [2] (animals imaged in the prone position) and in data set [2] (animals imaged in the supine position) were 1.02 % ID/g and 0.89 % ID/g, respectively. In addition, the “FHBG accumulation in control tumors” value in data set [2] (control implants stably expressing nTK plus cTK only, fifth day, with rapamycin) is on record as “minimal”. In addition, the “mean % ID/g for FHBG accumulation, background” value in data set [2] (mock transfected cells) amounted to 0.28±0.10 % ID/g. In addition, in data set [2] (tumor of cells transfected with nTK(V119C)-FRB plus FKBP12-cTK, after 5 days of daily rapamycin), the “mean % ID/g for FHBG accumulation” value turned out to be 4.37±1.74 % ID/g.
For `CCCc1c(-c2ccc(O)cc2)nn(-c2ccc(O)cc2)c1-c1ccc(O)cc1` [PPT, 1,3,5-tris(4-hydroxyphenyl)-4-propyl-1H-pyrazole], in data set [1] (setting [3]), the “level of intramolecular-folding-assisted complementation versus carrier control-treated cells” value is “significantly higher”.
Regarding `CO[C@H]1C[C@@H]2CC[C@@H](C)[C@@](O)(O2)C(=O)C(=O)N2CCCC[C@H]2C(=O)O[C@H]([C@H](C)C[C@@H]2CC[C@@H](O)[C@H](OC)C2)CC(=O)[C@H](C)/C=C(\C)[C@@H](O)[C@@H](OC)C(=O)[C@H](C)C[C@H](C)/C=C/C=C/C=C/1C` [rapamycin], in the data set with cells, the toxicity to cells result is “non-toxic”.
In the case of `CC[C@@H]1/C=C(\C)C[C@H](C)C[C@H](OC)[C@H]2O[C@@](O)(C(=O)C(=O)N3CCCC[C@H]3C(=O)O[C@H](/C(C)=C/[C@@H]3CC[C@@H](O)[C@H](OC)C3)[C@H](C)[C@@H](O)CC1=O)[C@H](C)C[C@@H]2OC` [ascomycin], on FKBP12, the “effect of increasing concentration on TK complementation” value was “reduction in TK complementation”. The “smallest concentration required to initiate the competitive inhibition of rapamycin” value on FKBP12 (0 to 16 μM) stood at 0.5 µM. Besides, the “dissociation of complexes (fraction)” value on FM (F36M) mutant FKBP12 (Five μM FK506, within 30 min) was “about two-thirds”. Besides, the “change of TK activity with increasing doses” value on FM (F36M) mutant FKBP12 (up to 5 μM, after 24 hr of exposure) is on record as “incremental reduction of TK activity”.
`Cc1c(-c2ccc(O)cc2)nn(-c2ccc(O)cc2)c1-c1ccc(OCCN2CCCCC2)cc1` [MPP, methyl piperidinylethoxy pyrazole]: in data set [1] (setting [3]), the “level of intramolecular-folding-assisted complementation versus carrier control-treated cells” value is given as “significantly higher”.

B1: nTK-FRB (other)
chain: MASYPCHQHASAFDQAARSRGHSNRRTALRPRRQQEATEVRLEQKMPTLLRVYIDGPHGMGKTTTTQLLVALGSRDDIVYVPEPMTYWRVLGASETIANIYTTQHRLDQGEISAGDAAVVMTSAQITMGMPYAVTDAVLAPHIGGEAGSSHAPPPALTLIFDRHPIAALLCYPAARYLMGSMTPQAVLAFVALIPPTLPGTNIVLGALPEDRHIDRLAKRQRPGERLDLAMLAAIRRVYGLLANTVRYLQCGGSWREDWGQLSGTGGGGSILWHEMWHEGLEEASRLYFGERNVKGMFEVLEPLHAMMERGPQTLKETSFNQAYGRDLMEAQEWCRKYMKSGNVKDLTQAWDLYYHVFRRISK
With B1, in the data set with FKBP12-cTK, the “complemented TK activity in the absence of rapamycin, against mock transfection, 293T cells” value is 2.3 fold above mock transfection levels; the “relative gain in complemented TK activity after rapamycin administration, 293T cells” value is roughly 3 fold induction; the “split TK complementation in SKBr3 human breast cancer cells, with rapamycin” value is roughly 3 fold rise; the “split TK complementation in SKOV3 human ovarian cancer cells, with rapamycin” value was roughly 3 fold rise.

B2: cTK: C-terminal TK fragment comprising the amino acids Ala-266 to Asn-376 (protein)
chain: AVTPQGAEPQSNAGPRPHIGETLFTLFRAPELLAPNGDLYNVFAWALDVLAKRLRPMHVFILDYDQSPAGCRDALLQLTSGMVQTHVTTPGSIPTICDLARTFAREMGEAH
As for B2, in the data set with HSV1-sr39TK, the “TK activity upon single- or co-expression of fragments without attached proteins” value is given as “no activity”.

B3: nTK: N-terminal TK fragment comprising the amino acids Met-1 to Thr-265 (protein)
chain: MASYPCHQHASAFDQAARSRGHSNRRTALRPRRQQEATEVRLEQKMPTLLRVYIDGPHGMGKTTTTQLLVALGSRDDIVYVPEPMTYWRVLGASETIANIYTTQHRLDQGEISAGDAAVVMTSAQITMGMPYAVTDAVLAPHIGGEAGSSHAPPPALTLIFDRHPIAALLCYPAARYLMGSMTPQAVLAFVALIPPTLPGTNIVLGALPEDRHIDRLAKRQRPGERLDLAMLAAIRRVYGLLANTVRYLQCGGSWREDWGQLSGT
In the case of B3, the “TK activity upon single- or co-expression of fragments without attached proteins” value with HSV1-sr39TK is given as “no activity”.
